Legend:
Format in all cases: cell-based, human
HEK293T cells [1] = assay: rAAV titer following transfection with and without pHelper; details: thymidine added at 24 hrs post transfection, harvest at 72 hrs
Source text: Plasmids containing adenoviral genes that promote AAV replication and vector production, such as pHelper, have previously been essential for rAAV packaging. That is, AAV requires co-infection of helper virus or introduction of a DNA-damaging agent to complete life cycle (Yakobson, Koch, and Winocour 1987; Yalklnoglu et al. 1988), functions that in rAAV manufacturing are typically replaced by transfection with a plasmid such as pHelper. The present disclosure provides the use of thymidine as a replacement for pHelper. The positive control cells were transfected with the three plasmids (AAV vector, AAV helper, pHelper) while the negative control cells were transfected without pHelper. In some samples, thymidine was added at 24 hrs post transfection (FIG. 6).
FIG. 6. HEK293T cells were transfected with plasmids in accordance with the indication and then thymidine was added at 24 hrs post transfection. All cells were harvested at 72 hrs post transfection and rAAV titer were determined. Error bars, mean±SD.

HEK293 cells = assay: rAAV titer by qPCR at 96 hrs post transfection, rAAV packaging in HEK293 cells; details: HEK293, thymidine added 24 hrs post transfection, harvest at 96 hrs
Experimental: To assess the generality of the result, HEK293 cells were tested, using a different packaging method than that used for HEK293T cells. HEK293 cells were seeded at high concentration and incubated for 72 hrs to reach 100% confluency and then transfected with plasmids. Thymidine was added 24 hrs post transfection, and pellets were harvested at 96 hrs post transfection (FIG. 4).
FIG. 5. HEK293 Cells were seeded at 1.0×10^5 cell/cm′ into 10 cm′ cell culture dish and transfected with the plasmids for rAAV packaging. Thymidine was treated at 24 hrs post transfection and cell pellets were harvested at 96 hrs post transfection. rAAV titer was measured by qPCR in the same method of FIG. 3. Error bars, mean±SD.

HEK 293T cells = assay: Cell cycle arrest by thymidine treatment, flow cytometry with DAPI or EdU incorporation; details: 4 mM thymidine, 24 hrs post treatment
Experimental: HEK 293T cells were treated with thymidine and analyzed using flow cytometry with DAPI (4′,6-diamidino-2-phenylindole) or EdU (5-ethynyl-2′-deoxyuridine) incorporation at 24 hrs post treatment.
FIG. 1A-1B. Verification of cell cycle arrest by thymidine treatment. HEK293T cells were split into 10 cm′ cell culture dishes at 3.0e6 cells/plate. Thymidine stock was prepared with molecular biology grade distilled water at a concentration of 200 mM. The final concentration of thymidine in the culture medium was 4 mM. Two hrs before harvest, cells were incubated with EdU and were harvested for flow cytometry. DAPI staining and EdU assay were performed in accordance with the manufacturer's protocol.

HEK293T cells [2] = assay: Total cell count prior to harvesting the cell pellet, rAAV packaging cultures; details: counted prior to harvest at 72 hrs post transfection
Experimental: (§1) The effect of thymidine treatment for rAAV packaging was assessed with the following description. rAAV manufacturing in HEK293T cells was achieved by transfecting cells with the transgene (ss-CAG-eGFP), the adenoviral helper plasmid pHelper, and rAAV2(Rep/Cap) helper plasmid in accordance with the standard protocol of PEI (polyethyleneimine) transfection (Ojala et al. 2018). Thymidine was added onto media without media change at 24 or 48 hrs post transfection and then cell pellets were harvested at 72 hrs post transfection (FIG. 2).
(§2) The number of total cells was counted for the evaluation of cell growth prior to harvesting the cell pellet (FIG. 3A). […] Next, cell lysate samples were incubated with Benzonase as well as DNase to remove residual plasmid, and rAAV titer with or without thymidine treatment was determined by quantitative polymerase chain reaction (qPCR) with specific primers for the transgene, eGFP (FIG. 3B). rAAV titer was then normalized to total cell count to compare viral titers in vg/cell (viral genomes/cell) (FIG. 3C).
FIG. 3A-3C. rAAV titer at 72 h with thymidine treatment. HEK293T cells were split into 10 cm′ cell culture dishes at 3.0×10^6 cells/plate and transfected with the plasmids for rAAV packaging. Cell pellets at 72 hrs post transfection were lysed by freezing and thawing and then incubated with Benzonase, followed by DNase. […]

HEK293T cells [3] = assay: rAAV titer by qPCR at 72 hrs post transfection, rAAV packaging in HEK293T cells
Experimental: as §1, §2
FIG. 3A-3C. rAAV titer at 72 h with thymidine treatment. HEK293T cells were split into 10 cm′ cell culture dishes at 3.0×10^6 cells/plate and transfected with the plasmids for rAAV packaging. Cell pellets at 72 hrs post transfection were lysed by freezing and thawing and then incubated with Benzonase, followed by DNase. Subsequent Proteinase K digestion released AAV genome ssDNA from the AAV vector, which were subjected into qPCR for measuring rAAV genome copy number. Error bars, mean±SD. *P<0.05, (All statistics are the result of a student's two tailed t-test with paired variance).

Compound: Cc1cn([C@H]2C[C@H](O)[C@@H](CO)O2)c(=O)[nH]c1=O [thymidine]
- rAAV packaging in the absence of pHelper (HEK293T cells [1]): rAAV was packaged in the absence of pHelper only when the thymidine was added
- rAAV titer in vg/ml, fold higher than control cells (HEK293 cells): 1.75 fold
- EdU incorporation (HEK 293T cells; EdU 2 hrs before harvest): no incorporation has occurred
- Cell cycle phase of cell population, total DNA stained by DAPI (HEK 293T cells; flow cytometry): predominantly in the S-phase section
- Total cell count vs control group (HEK293T cells [2]): lower cell count than the control group
- rAAV titer in vg/ml, fold higher than control (HEK293T cells [3]; thymidine treatment 24-72h post transfection, qPCR): 2.77 fold
- rAAV titer, fold higher than that on control cells (HEK293T cells [3]; thymidine treatment 24-72h post transfection, qPCR, basis not printed (second value after vg/ml)): 5.38 fold
- rAAV titer in vg/ml, fold higher than control (HEK293T cells [3]; thymidine treatment 48-72h post transfection, qPCR): 2.19 fold
- rAAV titer in vg/cell, fold higher than control (HEK293T cells [3]; thymidine treatment 48-72h post transfection, qPCR normalized to total cell count): 3.52 fold

Reference: patent US20230111672A1, “COMPOSITIONS AND METHODS FOR PRODUCTION OF RECOMBINANT ADENO-ASSOCIATED VIRUS” (The Regents of the University of California, priority 2020, published 2023)
